{"source": "ChEMBL document CHEMBL4311957", "about": "“Recent advances in natural antifungal flavonoids and their derivatives” (Bioorg Med Chem Lett, 2019)", "key": {"Candida albicans [1]": {"tested_on": "Candida albicans", "assay": "Synergistic antifungal activity against Candida albicans after 24 hrs in presence of Miconazole by checkerboard method", "type": "functional, organism-based"}, "Aspergillus fumigatus [2]": {"tested_on": "Aspergillus fumigatus", "assay": "Antifungal activity against Aspergillus fumigatus", "type": "functional"}, "Candida albicans [3]": {"tested_on": "Candida albicans", "assay": "Antifungal activity against Candida albicans", "type": "functional, organism-based"}, "Trichophyton rubrum [4]": {"tested_on": "Trichophyton rubrum", "assay": "Antifungal activity against Trichophyton rubrum ATCC MYA3108 by CLSI-based microdilution method", "type": "functional"}, "Trichophyton rubrum [5]": {"tested_on": "Trichophyton rubrum", "assay": "Antifungal activity against Trichophyton rubrum deltaTruMDR2 by CLSI-based microdilution method", "type": "functional"}, "[6]": {"assay": "Inhibition of fatty acid synthase in Trichophyton rubrum ATCC MYA3108"}, "Candida albicans [7]": {"tested_on": "Candida albicans", "assay": "Antifungal activity against Candida albicans ATCC 44859 after 24 to 48 hrs", "type": "functional"}, "Candida albicans [8]": {"tested_on": "Candida albicans", "assay": "Antifungal activity against FLC-resistant Candida albicans", "type": "functional"}, "Candida albicans [9]": {"tested_on": "Candida albicans", "assay": "Antibiofilm activity against Candida albicans by CSLM based method", "type": "functional"}, "Candida parapsilosis [10]": {"tested_on": "Candida parapsilosis", "assay": "Antifungal activity against Candida parapsilosis 96 by microdilution method", "type": "functional", "conditions": "Lodderomyces parapsilosis"}, "Candida tropicalis [11]": {"tested_on": "Candida tropicalis", "assay": "Antifungal activity against Candida tropicalis 166 by microdilution method", "type": "functional"}, "Pichia kudriavzevii [12]": {"tested_on": "Pichia kudriavzevii", "assay": "Antifungal activity against Candida krusei 168 by microdilution method", "type": "functional"}, "Candida albicans [13]": {"tested_on": "Candida albicans", "assay": "Antifungal activity against Candida albicans 501 by microdilution method", "type": "functional"}, "Candida albicans [14]": {"tested_on": "Candida albicans", "assay": "Antifungal activity against Candida albicans 498 by microdilution method", "type": "functional"}, "Candida albicans [15]": {"tested_on": "Candida albicans", "assay": "Antifungal activity against Candida albicans 53 by microdilution method", "type": "functional"}, "Candida albicans [16]": {"tested_on": "Candida albicans", "assay": "Antifungal activity against Candida albicans ATCC 10231 by microdilution method", "type": "functional"}, "Nakaseomyces glabratus [17]": {"tested_on": "Nakaseomyces glabratus", "assay": "Antifungal activity against Candida glabrata 507 by microdilution method", "type": "functional"}, "Nakaseomyces glabratus [18]": {"tested_on": "Nakaseomyces glabratus", "assay": "Antifungal activity against Candida glabrata 531 by microdilution method", "type": "functional"}, "Nakaseomyces glabratus [19]": {"tested_on": "Nakaseomyces glabratus", "assay": "Antifungal activity against Candida glabrata 587 by microdilution method", "type": "functional"}, "Nakaseomyces glabratus [20]": {"tested_on": "Nakaseomyces glabratus", "assay": "Antifungal activity against Candida glabrata 510 by microdilution method", "type": "functional"}, "Nakaseomyces glabratus [21]": {"tested_on": "Nakaseomyces glabratus", "assay": "Antifungal activity against Candida glabrata 493 by microdilution method", "type": "functional"}, "Nakaseomyces glabratus [22]": {"tested_on": "Nakaseomyces glabratus", "assay": "Antifungal activity against Candida glabrata 482 by microdilution method", "type": "functional"}, "Candida tropicalis [23]": {"tested_on": "Candida tropicalis", "assay": "Antibiofilm activity against Candida tropicalis by CSLM based method", "type": "functional"}, "Nakaseomyces glabratus [24]": {"tested_on": "Nakaseomyces glabratus", "assay": "Antifungal activity against Candida glabrata", "type": "functional"}, "Pichia kudriavzevii [25]": {"tested_on": "Pichia kudriavzevii", "assay": "Antifungal activity against Candida krusei", "type": "functional"}, "Candida parapsilosis [26]": {"tested_on": "Candida parapsilosis", "assay": "Antifungal activity against Candida parapsilosis", "type": "functional", "conditions": "Lodderomyces parapsilosis"}, "Nakaseomyces glabratus [27]": {"tested_on": "Nakaseomyces glabratus", "assay": "Antifungal activity against Candida glabrata ATCC 90030", "type": "functional"}, "Nakaseomyces glabratus [28]": {"tested_on": "Nakaseomyces glabratus", "assay": "Antifungal activity against Candida glabrata WT-5", "type": "functional"}, "Pichia kudriavzevii [29]": {"tested_on": "Pichia kudriavzevii", "assay": "Antifungal activity against Candida krusei ATCC 6258", "type": "functional"}, "Pichia kudriavzevii [30]": {"tested_on": "Pichia kudriavzevii", "assay": "Antifungal activity against Candida krusei CK25", "type": "functional"}, "Candida parapsilosis [31]": {"tested_on": "Candida parapsilosis", "assay": "Antifungal activity against Candida parapsilosis ATCC 22014", "type": "functional", "conditions": "Lodderomyces parapsilosis"}, "Candida parapsilosis [32]": {"tested_on": "Candida parapsilosis", "assay": "Antifungal activity against Candida parapsilosis 90/2224", "type": "functional", "conditions": "Lodderomyces parapsilosis"}, "Candida albicans [33]": {"tested_on": "Candida albicans", "assay": "Antifungal activity against Candida albicans NBRC 1385 by microdilution method", "type": "functional"}, "Trichophyton rubrum [34]": {"tested_on": "Trichophyton rubrum", "assay": "Antifungal activity against Trichophyton rubrum NBRC 5467 by microdilution method", "type": "functional"}, "[35]": {"tested_on": "Trichophyton mentagrophytes", "assay": "Antifungal activity against Trichophyton mentagrophytes IFM 46027 by microdilution method", "type": "functional"}, "Aspergillus fumigatus [36]": {"tested_on": "Aspergillus fumigatus", "assay": "Antifungal activity against Aspergillus fumigatus NBRC 4400 by microdilution method", "type": "functional"}, "[37]": {"assay": "Inhibition of fatty acid synthase in Trichophyton rubrum deltaTruMDR2"}}, "data": [{"compound": "COc1ccc(-c2cc(=O)c3c(O)cc(OC)cc3o2)cc1", "note": "[APIGENIN DIMETHYLETHER]", "values": [{"measurement": "IC50", "setting": "Candida albicans [1]", "value": 51.6, "unit": "µg/mL"}]}, {"compound": "OC(Cn1cncn1)(Cn1cncn1)c1ccc(F)cc1F", "note": "[FLUCONAZOLE]", "values": [{"measurement": "MIC", "setting": "Aspergillus fumigatus [2]", "value": 125, "unit": "µg/mL"}, {"measurement": "MIC", "setting": "Candida albicans [3]", "value": "5.1 to 62.5", "unit": "µg/mL"}, {"measurement": "MIC", "setting": "Trichophyton rubrum [4]", "value": 63, "unit": "µg/mL"}, {"measurement": "MIC", "setting": "Trichophyton rubrum [5]", "value": 63, "unit": "µg/mL"}, {"measurement": "IC50", "setting": "[6]", "value": 68.23, "unit": "µg/mL"}, {"measurement": "MIC", "setting": "Candida albicans [7]", "value": 10.2, "unit": "µM"}]}, {"compound": "O=c1cc(-c2ccccc2)oc2cc(O)c(O)c(O)c12", "note": "[BAICALEIN]", "values": [{"measurement": "MIC", "setting": "Candida albicans [3]", "value": 5.4, "unit": "µg/mL"}, {"measurement": "MIC", "setting": "Candida albicans [8]", "value": "13 to 26", "unit": "µg/mL"}, {"measurement": "MIC50", "setting": "Candida albicans [9]", "value": "4 to 32", "unit": "µg/mL"}, {"measurement": "MIC", "setting": "Candida parapsilosis [10]", "value": "5.2 to 13", "unit": "µg/mL"}, {"measurement": "MIC50", "setting": "Candida parapsilosis [10]", "value": "13 to 104", "unit": "µg/mL"}, {"measurement": "MIC", "setting": "Candida tropicalis [11]", "value": 10.4, "unit": "µg/mL"}, {"measurement": "MIC50", "setting": "Candida tropicalis [11]", "value": "13 to 104", "unit": "µg/mL"}, {"measurement": "MIC", "setting": "Pichia kudriavzevii [12]", "value": 21, "unit": "µg/mL"}, {"measurement": "MIC", "setting": "Candida albicans [13]", "value": 10.4, "unit": "µg/mL"}, {"measurement": "MIC", "setting": "Candida albicans [14]", "value": 10.4, "unit": "µg/mL"}, {"measurement": "MIC", "setting": "Candida albicans [15]", "value": 10.4, "unit": "µg/mL"}, {"measurement": "MIC", "setting": "Candida albicans [16]", "value": 10.4, "unit": "µg/mL"}, {"measurement": "MIC", "setting": "Nakaseomyces glabratus [17]", "value": 1.9, "unit": "µg/mL"}, {"measurement": "MIC", "setting": "Nakaseomyces glabratus [18]", "value": 1.9, "unit": "µg/mL"}, {"measurement": "MIC", "setting": "Nakaseomyces glabratus [19]", "value": 1.9, "unit": "µg/mL"}, {"measurement": "MIC", "setting": "Nakaseomyces glabratus [20]", "value": 1.9, "unit": "µg/mL"}, {"measurement": "MIC", "setting": "Nakaseomyces glabratus [21]", "value": 1.9, "unit": "µg/mL"}, {"measurement": "MIC", "setting": "Nakaseomyces glabratus [22]", "value": 1.9, "unit": "µg/mL"}, {"measurement": "MIC", "setting": "Candida tropicalis [23]", "value": "52 to 104", "unit": "µg/mL"}, {"measurement": "MIC", "setting": "Nakaseomyces glabratus [24]", "value": 2.7, "unit": "µg/mL"}, {"measurement": "MIC", "setting": "Pichia kudriavzevii [25]", "value": 2.7, "unit": "µg/mL"}, {"measurement": "MIC", "setting": "Candida parapsilosis [26]", "value": 5.4, "unit": "µg/mL"}, {"measurement": "MIC", "setting": "Nakaseomyces glabratus [27]", "value": 52.7, "unit": "µg/mL"}, {"measurement": "MIC", "setting": "Nakaseomyces glabratus [28]", "value": 52.7, "unit": "µg/mL"}, {"measurement": "MIC", "setting": "Pichia kudriavzevii [29]", "value": 2.7, "unit": "µg/mL"}, {"measurement": "MIC", "setting": "Pichia kudriavzevii [30]", "value": 2.7, "unit": "µg/mL"}, {"measurement": "MIC", "setting": "Candida parapsilosis [31]", "value": 5.4, "unit": "µg/mL"}, {"measurement": "MIC", "setting": "Candida parapsilosis [32]", "value": 5.4, "unit": "µg/mL"}, {"measurement": "MIC", "setting": "Candida albicans [33]", "value": 30, "unit": "µM"}, {"measurement": "MIC", "setting": "Trichophyton rubrum [34]", "value": 120, "unit": "µM"}, {"measurement": "MIC", "setting": "[35]", "value": 60, "unit": "µM"}, {"measurement": "MIC", "setting": "Aspergillus fumigatus [36]", "value": 230, "unit": "µM"}]}, {"compound": "O=C(/C=C/c1ccccc1)c1ccccc1", "note": "[CHALCONE]", "values": [{"measurement": "MIC", "setting": "Trichophyton rubrum [4]", "value": 7.5, "unit": "µg/mL"}, {"measurement": "MIC", "setting": "Trichophyton rubrum [5]", "value": 1.9, "unit": "µg/mL"}, {"measurement": "IC50", "setting": "[6]", "value": 68.23, "unit": "µg/mL"}, {"measurement": "IC50", "setting": "[37]", "value": 17.1, "unit": "µg/mL"}]}]}
